Laboratory results from article PMC4694564 (Molecular pharmaceutics, 2015).

T1: carboxylesterase 2 (CES2) (Homo sapiens, UniProt O00748)
T1 sequence (O00748 27-559): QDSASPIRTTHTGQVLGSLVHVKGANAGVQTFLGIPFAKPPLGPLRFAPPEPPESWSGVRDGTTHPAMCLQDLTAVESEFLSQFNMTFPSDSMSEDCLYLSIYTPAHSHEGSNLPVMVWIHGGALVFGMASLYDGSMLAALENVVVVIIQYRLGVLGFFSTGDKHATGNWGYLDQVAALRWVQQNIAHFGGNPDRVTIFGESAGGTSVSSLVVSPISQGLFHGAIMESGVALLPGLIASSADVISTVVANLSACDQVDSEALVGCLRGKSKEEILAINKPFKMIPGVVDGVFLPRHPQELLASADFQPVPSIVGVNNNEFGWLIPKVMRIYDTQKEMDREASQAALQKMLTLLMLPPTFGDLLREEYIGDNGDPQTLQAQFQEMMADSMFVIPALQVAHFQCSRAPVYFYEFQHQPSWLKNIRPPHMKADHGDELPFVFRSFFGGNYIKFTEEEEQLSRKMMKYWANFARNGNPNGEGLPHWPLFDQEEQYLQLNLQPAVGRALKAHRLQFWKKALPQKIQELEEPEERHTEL

T2: carboxylesterase 1 (CES1) (Homo sapiens, UniProt P23141)
T2 sequence (P23141 18-567): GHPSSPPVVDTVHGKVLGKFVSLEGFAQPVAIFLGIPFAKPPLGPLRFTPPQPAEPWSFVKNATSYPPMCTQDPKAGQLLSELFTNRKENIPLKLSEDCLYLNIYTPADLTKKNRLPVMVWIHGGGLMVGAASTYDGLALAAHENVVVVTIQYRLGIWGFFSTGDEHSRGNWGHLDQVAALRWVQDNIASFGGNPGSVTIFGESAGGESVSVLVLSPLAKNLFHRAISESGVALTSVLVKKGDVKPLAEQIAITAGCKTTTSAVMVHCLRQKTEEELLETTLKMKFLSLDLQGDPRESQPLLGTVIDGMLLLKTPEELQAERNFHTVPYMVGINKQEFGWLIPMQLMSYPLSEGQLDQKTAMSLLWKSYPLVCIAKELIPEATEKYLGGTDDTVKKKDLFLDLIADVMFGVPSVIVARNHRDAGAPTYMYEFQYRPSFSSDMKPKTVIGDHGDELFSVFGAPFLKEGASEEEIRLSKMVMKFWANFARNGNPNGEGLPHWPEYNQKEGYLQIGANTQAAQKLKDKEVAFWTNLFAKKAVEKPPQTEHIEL


Assays:
[1] = molecular target: T1, carboxylesterase 2 (CES2); assay: inhibition of recombinant human CES2; type: biochemical
[2] = molecular target: T2, carboxylesterase 1 (CES1); assay: inhibition of recombinant human CES1; type: biochemical
purified protein = substrate: CCOC(=O)C1=C[C@@H](OC(CC)CC)[C@H](NC(C)=O)[C@@H](N)C1; assay: purified protein; type: biochemical, Homo sapiens

Molecule	IC50 [1] [nM]	IC50 [2] [nM]	Km (purified protein) [µM]
Cc1cc(OC(=O)NC2CCCCC2)ccc1F [WWL50, 4-fluoro-3-methylphenyl cyclohexylcarbamate]	429 ± 2.6	4.3 ± 0.6	
carboxylesterase 1 (CES1) (Homo sapiens) (protein) GHPSSPPVVDTVHGKVLGKFVSLEGFAQPVAIFLGIPFAKPPLGPLRFTPPQPAEPWSFVKNATSYPPMCTQDPKAGQLLSELFTNRKENIPLKLSEDCLYLNIYTPADLTKKNRLPVMVWIHGGGLMVGAASTYDGLALAAHENVVVVTIQYRLGIWGFFSTGDEHSRGNWGHLDQVAALRWVQDNIASFGGNPGSVTIFGESAGGESVSVLVLSPLAKNLFHRAISESGVALTSVLVKKGDVKPLAEQIAITAGCKTTTSAVMVHCLRQKTEEELLETTLKMKFLSLDLQGDPRESQPLLGTVIDGMLLLKTPEELQAERNFHTVPYMVGINKQEFGWLIPMQLMSYPLSEGQLDQKTAMSLLWKSYPLVCIAKELIPEATEKYLGGTDDTVKKKDLFLDLIADVMFGVPSVIVARNHRDAGAPTYMYEFQYRPSFSSDMKPKTVIGDHGDELFSVFGAPFLKEGASEEEIRLSKMVMKFWANFARNGNPNGEGLPHWPEYNQKEGYLQIGANTQAAQKLKDKEVAFWTNLFAKKAVEKPPQTEHIEL			2900
